Results as given in PubChem BioAssay AID1963836 (Molecular Pharmacology Branch, DTP, NCI, 2024).
pIC50: −log10 of the molar value. Where “and” joins values, the source holds several entries; their conditions need not be identical. Identical values can stand only once.

Test system: 857933-349-R-J2-PDC complex spheroid viability
Assay: Anticancer human tumor 857933-349-R-J2-PDC patient-derived colon adenocarcinoma cell line growth inhibition [POLQ]
Details: for viability, T/C: stronger effect = lower value
Experimental: Multicellular complex tumor spheroid response to Polymerase (POL) inhibitors (novobiocin, ART-558, RP6685) in combination with a variety of drugs and investigational agents in selected tumor cell lines
The POL inhibitors (novobiocin, ART-558, and RP6685) were evaluated both individually and in combination with standard of care and investigational anticancer small molecules within a complex spheroid model of solid tumors. . Complex spheroids include a stromal component modeled by human endothelial cells (HUVEC) and fibroblasts modeled by human mesenchymal stem cells (MSCs). The concentration ranges selected for each drug and investigational agent were based upon clinically achievable concentrations if the clinical Cmax of the agent was known.
Compounds. The drugs and investigational agents: novobiocin (NSC847541), ART-558 (NSC835418), RP-6685 (NSC848927), peposertib (NSC802822), ceralasertib (NSC780249), elimusertib (NSC800525), camonsertib (NSC841442), AZD-1390 (NSC803789), olaparib (NSC753686), talazoparib (NSC767125), rucaparib (NSC756644), sotorasib (NSC818433), MRTX-1133 (NSC836407), SN-38 (NSC673596), topotecan (NSC609699), epotoside (NSC141540), doxorubicin (NSC123127), gemcitabine (NSC613327), 5-fluorouracil (NSC19893), paclitaxel (NSC125973), vemurafenib (NSC761431), MSA-2 (NSC828583), SN-011 (NSC837082), adavosertib (NSC754352), prexasertib (NSC758257), carboplatin (NSC241240) and oxaliplatin (NSC266046), were obtained from the National Cancer Institute (NCI) Developmental Therapeutics Program Chemical Repository (21). The FDA-approved anticancer drug set is available from the Developmental Therapeutics Program at https://dtp.cancer.gov/organization/dscb/obtaining/. […] The stock solutions were prepared in dimethyl sulfoxide (DMSO, Sigma-Aldrich, St. Louis, MO, cat. D2650), except for the platinum compounds which were prepared in saline (Quality Biological, Gaithersburg, MD, cat. 114-055-101), at 800-fold the tested concentration and stored at -70 degrees C prior to their use. All drugs and investigational agents were tested over a range starting from a high concentration at or near the clinical Cmax and decreasing in half-log increments. If the clinical Cmax for an agent had not been determined, the highest concentration tested was 10 microM, except for SN-38, which was tested at a high concentration of 1 microM.
Cell Culture. All cells were maintained in an incubator at 37 degrees C and 5% CO2 with 95% humidity. The PDC lines were cultured according to standard operating procedures established by the NCI PDMR (https://pdmr.cancer.gov). Table 3 of the manuscript, lists the cell lines along with the number of the three cell types plated to form the mct-spheroids and media for tumor cell growth. After thawing, all PDC lines, except 997537-175-T-J1-PDC and 415267-285-R-J2-PDC, were cultured in Matrigel-coated flasks prepared with a working solution of 1X Ham's F-12 nutrient mix, without supplementation (Thermo Fisher Scientific, cat. 11765054), 100 U/mL penicillin-streptomycin (Thermo Fisher Scientific, cat. 15140122), and 2.5% Matrigel (Corning Inc., Corning, NY, cat. 354248) for the first three passages. The two PDC lines 997537-175-T-J1-PDC and 415267-285-R-J2-PDC were cultured on uncoated flasks. The 857933-349-R-J2-PDC line was cultured in 6C/Colon 1B media containing advanced DMEM/F-12 (Thermo Fisher Scientific, cat. 12634028), 10 mM HEPES (Thermo Fisher Scientific, cat. 15630080), 1X GlutaMAX supplement (Thermo Fisher Scientific, cat. 35050061), 0.1 mg/mL primocin (InvivoGen, San Diego, CA, cat. ant-pm-2), 10% defined fetal bovine serum, heat inactivated (HyClone Laboratories Inc., Logan, UT, cat. SH30070.03HI), 50% L-WRN conditioned media (ATCC, cat. CRL-3276), 1.25 mM N-Acetyl-L-cysteine (Sigma-Aldrich, cat. A9165), 10 mM nicotinamide (Sigma-Aldrich, cat. N0636), 1X B-27 supplement (Thermo Fisher Scientific, cat. 17504044), 1X N-2 supplement (Thermo Fisher Scientific, cat. […]
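Note: spheroids exposed to compounds for seven days before readout.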

SMILES: CC(=O)O[C@H]1C(=O)[C@@]2(C)[C@H]([C@H](OC(=O)c3ccccc3)[C@]3(O)C[C@H](OC(=O)[C@H](O)[C@@H](NC(=O)c4ccccc4)c4ccccc4)C(C)=C1C3(C)C)[C@]1(OC(C)=O)CO[C@@H]1C[C@@H]2O
- viability, T/C (compound 0.00949 µM): 40.3% and 50.5% and 65.1%
- viability, T/C (compound 0.03 µM): 15.2% and 21.8% and 27.1%
- viability, T/C (compound 0.0949 µM): 9.46% and 11.5% and 16.2%
- viability, T/C (compound 0.3 µM): 12.5% and 11.3% and 21.3%
- viability, T/C (compound 0.949 µM): 11.2% and 14.4% and 17%
- viability, T/C (compound 3 µM): 12.1% and 16.1% and 21.9%
- pIC50 (curve of compound): > 8.02 and 8.02 and 7.82

SMILES: COc1cc(C2c3cc4c(cc3C(OC3OC5COC(C)OC5C(O)C3O)C3COC(=O)C23)OCO4)cc(OC)c1O (stereo not given)
- viability, T/C (compound 0.0316 µM): 74.7% and 90.5% and 74.8%
- viability, T/C (compound 0.1 µM): 74% and 67.4% and 84.9%
- viability, T/C (compound 0.316 µM): 51.1% and 65.9% and 54.1%
- viability, T/C (compound 1 µM): 60% and 59.9% and 55.7%
- viability, T/C (compound 3.16 µM): 38.2% and 33.4% and 32.9%
- viability, T/C (compound 10 µM): 24.6% and 24.7% and 27.6%
- pIC50 (curve of compound): 5.94 and 5.92 and 6.02

SMILES: COc1cccc(OCCCN)c1-c1cc(Nc2cnc(C#N)cn2)n[nH]1
- viability, T/C (compound 0.00316 µM): 91.5% and 95.9% and 86.6%
- viability, T/C (compound 0.01 µM): 87.6% and 84.2% and 97.2%
- viability, T/C (compound 0.0316 µM): 74.3% and 98.6% and 80.6%
- viability, T/C (compound 0.1 µM): 51.2% and 62.8% and 75.9%
- viability, T/C (compound 0.316 µM): 53.3% and 60.6% and 53.7%
- viability, T/C (compound 1 µM): 38.1% and 53.8% and 48.8%
- pIC50 (curve of compound): 6.72 and < 6.00 and 6.14

SMILES: Cn1ncnc1[C@H]1c2n[nH]c(=O)c3cc(F)cc(c23)N[C@@H]1c1ccc(F)cc1
- viability, T/C (compound 0.000316 µM): 96.9% and 93.8% and 114%
- viability, T/C (compound 0.001 µM): 93.6% and 90.7% and 86.2%
- viability, T/C (compound 0.00316 µM): 105% and 103% (2×)
- viability, T/C (compound 0.01 µM): 99.3% and 97.8% and 73.1%
- viability, T/C (compound 0.0316 µM): 85.6% and 89.2% and 103%
- viability, T/C (compound 0.1 µM): 90.2% and 97.5% and 88.9%
- pIC50 (curve of compound): < 7.00

SMILES: C=CCn1c(=O)c2cnc(Nc3ccc(N4CCN(C)CC4)cc3)nc2n1-c1cccc(C(C)(C)O)n1
- viability, T/C (compound 0.00316 µM): 99.5% and 94.6% and 95.5%
- viability, T/C (compound 0.01 µM): 72.9% and 104% and 93.5%
- viability, T/C (compound 0.0316 µM): 84.6% and 98.7% and 93.5%
- viability, T/C (compound 0.1 µM): 94.9% and 107% and 102%
- viability, T/C (compound 0.316 µM): 109% and 102% (2×)
- viability, T/C (compound 1 µM): 66.4% and 73.5% and 82.9%
- pIC50 (curve of compound): < 6.00

SMILES: C#Cc1c(F)ccc2cc(O)cc(-c3ncc4c(N5CC6CCC(C5)N6)nc(OCC56CCCN5CC(F)C6)nc4c3F)c12 (stereo not given)
- viability, T/C (compound 0.0316 µM): 85.3% and 89.3% and 102%
- viability, T/C (compound 0.1 µM): 101% and 91.6% and 82.3%
- viability, T/C (compound 0.316 µM): 95.7% and 95.3% and 81.3%
- viability, T/C (compound 1 µM): 87.1% and 81.7% and 96.6%
- viability, T/C (compound 3.16 µM): 99.9% and 71.5% and 70.8%
- viability, T/C (compound 10 µM): 76.4% and 80.9% and 93.4%
- pIC50 (curve of compound): < 5.00

SMILES: CC[C@@]1(O)C(=O)OCc2c1cc1n(c2=O)Cc2cc3c(CN(C)C)c(O)ccc3nc2-1
- viability, T/C (compound 0.000316 µM): 98.5% and 99.4% and 113%
- viability, T/C (compound 0.001 µM): 115% and 95.2% and 99.9%
- viability, T/C (compound 0.00316 µM): 79.1% and 91.7% and 88.3%
- viability, T/C (compound 0.01 µM): 71.2% and 80% and 87.5%
- viability, T/C (compound 0.0316 µM): 66.7% and 63.9% and 53.9%
- viability, T/C (compound 0.1 µM): 44.2% and 46.5% and 45.7%
- pIC50 (curve of compound): 7.12 and 7.10 and 7.18

SMILES: CC(C)n1c(=O)n(C)c2cnc3cc(F)c(-c4ccc(OCCCN5CCCCC5)nc4)cc3c21
- viability, T/C (compound 0.0316 µM): 85.8% and 92.4% and 99%
- viability, T/C (compound 0.1 µM): 84.1% and 96.4% and 101%
- viability, T/C (compound 0.316 µM): 92.8% and 101% and 115%
- viability, T/C (compound 1 µM): 91.6% and 100% and 106%
- viability, T/C (compound 3.16 µM): 94.7% and 113% and 97.5%
- viability, T/C (compound 10 µM): 63.6% and 98.3% and 110%
- pIC50 (curve of compound): < 5.00

SMILES: C=CC(=O)N1CCN(c2nc(=O)n(-c3c(C)ccnc3C(C)C)c3nc(-c4c(O)cccc4F)c(F)cc23)C(C)C1 (stereo not given)
- viability, T/C (compound 0.0316 µM): 82% and 96.3% and 96.5%
- viability, T/C (compound 0.1 µM): 103% and 96.2% and 101%
- viability, T/C (compound 0.316 µM): 97.5% and 113% and 80.8%
- viability, T/C (compound 1 µM): 101% and 99.1% and 91.3%
- viability, T/C (compound 3.16 µM): 94.3% and 103% and 92.1%
- viability, T/C (compound 10 µM): 117% and 103% and 94.6%
- pIC50 (curve of compound): < 5.00

SMILES: C=CC(=O)N1CCN(c2nc(=O)n(-c3c(C)ccnc3C(C)C)c3nc(-c4c(O)cccc4F)c(F)cc23)C(C)C1 (stereo not given) + Cc1cccc(N(C)C(=O)C2C(O)CCN2c2nc(C)cc(C(F)(F)F)c2C#N)c1
- pIC50 (curve of first compound, second compound 0.0316 µM): < 5.00
- pIC50 (curve of first compound, second compound 0.1 µM): < 5.00
- pIC50 (curve of first compound, second compound 0.316 µM): < 5.00
- pIC50 (curve of first compound, second compound 1 µM): < 5.00
- pIC50 (curve of first compound, second compound 3.16 µM): < 5.00
- pIC50 (curve of first compound, second compound 10 µM): < 5.00
- viability, T/C (second compound 0.0316 µM, first compound 0.0316 µM): 101%
- viability, T/C (second compound 0.0316 µM, first compound 0.1 µM): 104%
- viability, T/C (second compound 0.0316 µM, first compound 0.316 µM): 94.8%
- viability, T/C (second compound 0.0316 µM, first compound 1 µM): 113%
- viability, T/C (second compound 0.0316 µM, first compound 3.16 µM): 97.2%
- viability, T/C (second compound 0.0316 µM, first compound 10 µM): 80.5%
- viability, T/C (second compound 0.1 µM, first compound 0.0316 µM): 114%
- viability, T/C (second compound 0.1 µM, first compound 0.1 µM): 106%
- viability, T/C (second compound 0.1 µM, first compound 0.316 µM): 73%
- viability, T/C (second compound 0.1 µM, first compound 1 µM): 112%
- viability, T/C (second compound 0.1 µM, first compound 3.16 µM): 98.9%
- viability, T/C (second compound 0.1 µM, first compound 10 µM): 85.3%
- viability, T/C (second compound 0.316 µM, first compound 0.0316 µM): 91.1%
- viability, T/C (second compound 0.316 µM, first compound 0.1 µM): 100%
- viability, T/C (second compound 0.316 µM, first compound 0.316 µM): 109%
- viability, T/C (second compound 0.316 µM, first compound 1 µM): 87.4%
- viability, T/C (second compound 0.316 µM, first compound 3.16 µM): 84.4%
- viability, T/C (second compound 0.316 µM, first compound 10 µM): 70%
- viability, T/C (second compound 1 µM, first compound 0.0316 µM): 95.3%
- viability, T/C (second compound 1 µM, first compound 0.1 µM): 95.2%
- viability, T/C (second compound 1 µM, first compound 0.316 µM): 89.3%
- viability, T/C (second compound 1 µM, first compound 1 µM): 101%
- viability, T/C (second compound 1 µM, first compound 3.16 µM): 113%
- viability, T/C (second compound 1 µM, first compound 10 µM): 97.9%
- viability, T/C (second compound 3.16 µM, first compound 0.0316 µM): 76.5%
- viability, T/C (second compound 3.16 µM, first compound 0.1 µM): 106%
- viability, T/C (second compound 3.16 µM, first compound 0.316 µM): 109%
- viability, T/C (second compound 3.16 µM, first compound 1 µM): 84%
- viability, T/C (second compound 3.16 µM, first compound 3.16 µM): 99.8%
- viability, T/C (second compound 3.16 µM, first compound 10 µM): 95.2%
- viability, T/C (second compound 10 µM, first compound 0.0316 µM): 88.7%
- viability, T/C (second compound 10 µM, first compound 0.1 µM): 84.2%
- viability, T/C (second compound 10 µM, first compound 0.316 µM): 101%
- viability, T/C (second compound 10 µM, first compound 1 µM): 85.9%
- viability, T/C (second compound 10 µM, first compound 3.16 µM): 91.8%
- viability, T/C (second compound 10 µM, first compound 10 µM): 77.7%
